# Reference: patent publication US9309242B2, “Substituted pyrido[2,3-b]pyrazines as FGFR kinase inhibitors” (priority 2011, dated 2016)
# Like-named read-outs stand apart in the source and are kept apart here.
# Experiments:
# KDR (h) = KDR (h) (Homo sapiens, UniProt P35968); assay: KDR (VEGFR2) (enzymatic assay), TR-FRET; assay type: biochemical; conditions: average values if tested multiple times, read-out: VEGFR 2 (KDR) pIC50 (converted)
# Outline: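 Human KDR (150 ng/ml) was reacted with 500 nM Btn-Flt3 and 3 μM ATP in 50 mM HEPES pH 7.5, 6 mM MnCl2, 1 mM DTT, 0.1 mM Na3VO4, 0.01% Triton X-100, 1% DMSO, for 120 min at room temperature. Phosphorylation detected by TR-FRET (Eu-anti-P-Tyr/SA-XL665, 60 min), read in RFU.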
# FGFR3 (h) = FGFR3 (h) (Homo sapiens, UniProt P22607); assay: FGFR3 (enzymatic assay), TR-FRET; assay type: biochemical; conditions: average values if tested multiple times, read-out: FGFR 3 pIC50 (converted)
# Chain of FGFR3 (h) (P22607 23-806): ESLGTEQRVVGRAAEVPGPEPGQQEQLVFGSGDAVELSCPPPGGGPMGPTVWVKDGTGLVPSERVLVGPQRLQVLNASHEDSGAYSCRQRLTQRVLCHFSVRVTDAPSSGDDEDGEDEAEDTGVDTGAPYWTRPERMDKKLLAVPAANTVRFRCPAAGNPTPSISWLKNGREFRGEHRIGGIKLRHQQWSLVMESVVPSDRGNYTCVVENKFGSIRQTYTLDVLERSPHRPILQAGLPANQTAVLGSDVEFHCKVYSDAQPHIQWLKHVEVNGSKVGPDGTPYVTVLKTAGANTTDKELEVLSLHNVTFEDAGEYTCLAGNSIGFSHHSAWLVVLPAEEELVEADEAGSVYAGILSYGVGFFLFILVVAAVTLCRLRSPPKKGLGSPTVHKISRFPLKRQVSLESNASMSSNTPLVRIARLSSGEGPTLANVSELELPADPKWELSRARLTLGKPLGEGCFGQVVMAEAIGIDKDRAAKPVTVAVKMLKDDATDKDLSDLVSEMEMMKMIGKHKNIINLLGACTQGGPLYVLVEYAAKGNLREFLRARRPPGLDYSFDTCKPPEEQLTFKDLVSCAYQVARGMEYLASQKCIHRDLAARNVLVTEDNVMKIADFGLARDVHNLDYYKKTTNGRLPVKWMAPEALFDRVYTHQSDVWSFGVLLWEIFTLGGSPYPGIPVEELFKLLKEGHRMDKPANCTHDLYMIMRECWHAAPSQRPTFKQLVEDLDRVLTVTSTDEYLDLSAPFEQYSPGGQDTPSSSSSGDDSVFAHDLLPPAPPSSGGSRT
# Source text: Time-Resolved Fluorescence Resonance Energy Transfer (TR-FRET) signal (ex340 nm.
# [1] = biological target: T1, Ba/F3-Flt3-transfected cells (Homo sapiens, UniProt P36888, cells depend on it, form not given); assay: Ba/F3-Flt3 (minus IL3) cellular proliferation assay, Alamar Blue; assay type: cell-based
# T1 construct: BAF3-FLT3 (MIN IL3) pIC50; other: minus IL3
# T1 sequence (P36888 1-993): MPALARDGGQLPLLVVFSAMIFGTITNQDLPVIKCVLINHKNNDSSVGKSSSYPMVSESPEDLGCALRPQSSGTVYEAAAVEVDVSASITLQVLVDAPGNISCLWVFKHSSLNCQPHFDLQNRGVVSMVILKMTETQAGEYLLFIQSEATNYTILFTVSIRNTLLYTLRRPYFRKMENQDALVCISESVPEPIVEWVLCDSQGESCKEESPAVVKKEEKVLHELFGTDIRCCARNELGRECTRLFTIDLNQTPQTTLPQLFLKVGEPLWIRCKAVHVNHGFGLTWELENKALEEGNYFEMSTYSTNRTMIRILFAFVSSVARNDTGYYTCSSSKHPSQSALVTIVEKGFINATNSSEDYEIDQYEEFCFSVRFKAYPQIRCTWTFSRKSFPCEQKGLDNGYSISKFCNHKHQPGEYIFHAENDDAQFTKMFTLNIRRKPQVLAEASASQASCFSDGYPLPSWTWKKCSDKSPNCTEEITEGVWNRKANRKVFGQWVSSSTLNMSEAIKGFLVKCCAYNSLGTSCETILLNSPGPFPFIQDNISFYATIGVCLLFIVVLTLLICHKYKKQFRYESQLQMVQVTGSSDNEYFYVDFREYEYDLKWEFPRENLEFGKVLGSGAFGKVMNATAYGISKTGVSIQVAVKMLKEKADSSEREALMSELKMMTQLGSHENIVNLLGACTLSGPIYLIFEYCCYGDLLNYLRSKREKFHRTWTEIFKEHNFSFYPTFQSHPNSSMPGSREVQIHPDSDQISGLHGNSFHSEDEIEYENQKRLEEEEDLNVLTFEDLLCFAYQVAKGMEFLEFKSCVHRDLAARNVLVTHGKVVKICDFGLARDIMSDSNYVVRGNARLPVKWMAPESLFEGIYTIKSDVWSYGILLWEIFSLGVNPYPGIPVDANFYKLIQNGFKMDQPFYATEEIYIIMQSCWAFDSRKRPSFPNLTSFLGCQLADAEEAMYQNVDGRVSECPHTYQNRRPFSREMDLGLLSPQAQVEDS
# Protocol: (§1) Ba/F3-Flt3 (Minus IL3 or Plus IL3) (Cellular Proliferation Assay)
# In a 384 well plate, 100 nl of compound dilution in DMSO was sprayed before adding 50 μl cell culture medium (phenol red free RPMI-1640, 10% FBS, 2 mM L-Glutamine and 50 μg/ml Gentamycin) containing 20000 cells per well of Ba/F3-Flt3-transfected cells. Cells were put in an incubator at 37° C. and 5% CO2. After 24 hours, 10 μl of Alamar Blue solution (0.5 mM K3Fe(CN)6, 0.5 mM K4Fe(CN)6, 0.15 mM Resazurin and 100 mM Phosphate Buffer) was added to the wells, incubated for 4 hours at 37° C. and 5% CO2 before RFU's (Relative Fluorescence Units) (ex. 540 nm., em. 590 nm.) were measured in a fluororescence plate reader. […]
# [2] = test system: Ba/F3-Flt3-transfected cells; assay: Ba/F3-Flt3 (plus IL3) cellular proliferation assay, counterscreen with 10 ng/ml murine IL3; assay type: cell-based; conditions: read-out: BAF3_FLT3 (PLUS IL3) pIC50 (converted)
# Protocol: as §1
# In a 384 well plate, 100 nl of compound dilution in DMSO was sprayed before adding 50 μl cell culture medium (phenol red free RPMI-1640, 10% FBS, 2 mM L-Glutamine and 50 μg/ml Gentamycin) containing 20000 cells per well of Ba/F3-Flt3-transfected cells. Cells were put in an incubator at 37° C. and 5% CO2. After 24 hours, 10 μl of Alamar Blue solution (0.5 mM K3Fe(CN)6, 0.5 mM K4Fe(CN)6, 0.15 mM Resazurin and 100 mM Phosphate Buffer) was added to the wells, incubated for 4 hours at 37° C. and 5% CO2 before RFU's (Relative Fluorescence Units) (ex. 540 nm., em. 590 nm.) were measured in a fluororescence plate reader.
# As a counterscreen the same experiment was performed in the presence of 10 ng/ml murine IL3.
# [3] = biological target: Ba/F3-FGFR4-transfected cells (Homo sapiens, UniProt P22455); assay: Ba/F3-FGFR4 cellular proliferation assay, Alamar Blue; assay type: cell-based
# Chain of Ba/F3-FGFR4-transfected cells (P22455 whole entry, change not shown): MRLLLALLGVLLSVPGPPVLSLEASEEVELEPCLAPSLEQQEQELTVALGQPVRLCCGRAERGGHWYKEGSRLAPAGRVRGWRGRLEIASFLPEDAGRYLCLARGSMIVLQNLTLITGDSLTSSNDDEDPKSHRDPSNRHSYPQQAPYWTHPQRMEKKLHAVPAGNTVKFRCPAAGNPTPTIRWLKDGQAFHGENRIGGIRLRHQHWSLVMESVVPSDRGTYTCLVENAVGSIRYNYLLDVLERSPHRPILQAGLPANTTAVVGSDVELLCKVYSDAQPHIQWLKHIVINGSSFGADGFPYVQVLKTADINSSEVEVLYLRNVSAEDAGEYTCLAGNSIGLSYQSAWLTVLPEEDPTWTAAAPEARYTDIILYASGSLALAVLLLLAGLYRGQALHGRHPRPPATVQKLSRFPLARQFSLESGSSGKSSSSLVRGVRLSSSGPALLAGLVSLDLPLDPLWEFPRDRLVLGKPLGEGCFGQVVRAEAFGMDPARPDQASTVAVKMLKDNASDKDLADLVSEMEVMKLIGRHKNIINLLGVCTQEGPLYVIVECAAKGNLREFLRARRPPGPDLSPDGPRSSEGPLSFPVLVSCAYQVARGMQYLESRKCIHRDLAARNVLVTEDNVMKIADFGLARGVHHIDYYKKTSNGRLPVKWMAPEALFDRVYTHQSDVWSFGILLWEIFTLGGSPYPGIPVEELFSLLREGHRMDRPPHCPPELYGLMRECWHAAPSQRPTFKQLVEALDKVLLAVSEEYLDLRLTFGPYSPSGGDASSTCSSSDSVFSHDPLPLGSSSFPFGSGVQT
# Outline: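 Ba/F3-FGFR4 cells (20000/well) in phenol red-free RPMI-1640 with 10% FBS are exposed to compound for 24 h at 37 °C, 5% CO2. Alamar Blue (resazurin) is then added for 4 h and fluorescence read at ex 540/em 590 nm.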
# [4] = plus IL3 (10 ng/ml murine IL3, counterscreen)
# Chain of KDR (h) (P35968 20-1356): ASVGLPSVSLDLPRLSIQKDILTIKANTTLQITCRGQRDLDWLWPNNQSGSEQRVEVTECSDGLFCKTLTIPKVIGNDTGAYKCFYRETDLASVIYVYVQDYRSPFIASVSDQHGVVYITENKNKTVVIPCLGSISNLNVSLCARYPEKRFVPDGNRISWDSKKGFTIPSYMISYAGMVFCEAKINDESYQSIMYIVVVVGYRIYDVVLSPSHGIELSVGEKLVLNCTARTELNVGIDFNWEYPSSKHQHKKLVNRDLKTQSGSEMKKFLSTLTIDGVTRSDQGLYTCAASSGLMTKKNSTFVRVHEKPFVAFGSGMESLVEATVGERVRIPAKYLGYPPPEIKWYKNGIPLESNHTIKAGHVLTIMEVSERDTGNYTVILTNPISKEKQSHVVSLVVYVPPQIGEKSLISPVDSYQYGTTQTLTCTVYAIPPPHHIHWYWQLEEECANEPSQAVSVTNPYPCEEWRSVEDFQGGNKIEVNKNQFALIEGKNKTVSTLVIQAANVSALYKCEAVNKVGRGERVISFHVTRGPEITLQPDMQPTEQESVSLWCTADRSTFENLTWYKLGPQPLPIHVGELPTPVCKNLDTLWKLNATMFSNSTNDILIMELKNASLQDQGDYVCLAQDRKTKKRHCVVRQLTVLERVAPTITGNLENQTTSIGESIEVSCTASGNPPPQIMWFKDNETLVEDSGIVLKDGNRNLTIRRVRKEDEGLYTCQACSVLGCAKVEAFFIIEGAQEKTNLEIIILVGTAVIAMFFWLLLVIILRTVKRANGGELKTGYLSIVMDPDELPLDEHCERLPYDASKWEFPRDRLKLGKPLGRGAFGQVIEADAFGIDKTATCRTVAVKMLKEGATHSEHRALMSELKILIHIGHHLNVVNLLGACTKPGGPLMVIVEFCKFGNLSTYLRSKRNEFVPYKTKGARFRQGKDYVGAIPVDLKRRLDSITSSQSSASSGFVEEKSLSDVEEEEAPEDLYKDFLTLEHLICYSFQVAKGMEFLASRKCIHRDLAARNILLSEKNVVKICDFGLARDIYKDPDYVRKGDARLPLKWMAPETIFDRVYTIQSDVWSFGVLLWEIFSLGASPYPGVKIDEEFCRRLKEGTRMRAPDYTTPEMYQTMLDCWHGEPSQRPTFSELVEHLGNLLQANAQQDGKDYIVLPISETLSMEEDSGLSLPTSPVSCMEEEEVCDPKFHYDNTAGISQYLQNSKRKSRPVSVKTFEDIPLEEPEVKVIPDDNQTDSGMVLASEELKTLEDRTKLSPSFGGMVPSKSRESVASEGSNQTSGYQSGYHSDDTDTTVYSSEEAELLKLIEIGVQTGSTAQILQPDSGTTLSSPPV
Compound,IC50 (KDR (h)) [nM],IC50 (FGFR3 (h)) [nM],BAF3-FLT3 (MIN IL3) pIC50 [1],"IC50 [2, 4] [nM]",melting point [°C],BAF3-FGFR4 pIC50 [3],IC50 [2] [nM]
"COc1cc(OC)c(F)c(N(CCCO)c2ccc3ncc(-c4cnn(C)c4)nc3n2)c1F (single isomer, unassigned) [Compound 16]",100,25.1,5.18,> 10000,208,7.7,–
COc1cc(OC)c(F)c(N(CCNC(C)C)c2ccc3ncc(-c4cnn(C)c4)nc3n2)c1F [Compound 5],79.4,1.58,–,> 10000,183,~8.21,–
COCC(O)CN(c1cc(OC)cc(OC)c1)c1ccc2ncc(-c3cnn(C)c3)nc2n1 (stereo not shown) [Compound 7],200,1.58,<5,> 10000,65,6.53,–
COc1cc(OC)c(F)c(N(Cc2ncccn2)c2ccc3ncc(-c4cnn(C)c4)nc3n2)c1 [Compound 9],50.1,15.8,<5,–,227,6.79,> 10000
COc1cc(OC)c(F)c(N(Cc2cnccn2)c2ccc3ncc(-c4cnn(C)c4)nc3n2)c1F [Compound 10],31.6,63.1,5.12,> 10000,–,7.57,–
COc1cc(OC)c(F)c(N(CCO)c2ccc3ncc(-c4cnn(C)c4)nc3n2)c1F [Compound 20],316,1.58,5.23,> 10000,–,7.63,–
COc1cc(OC)cc(N(CC#Cc2ncccc2OC)c2ccc3ncc(-c4cnn(C)c4)nc3n2)c1 [Compound 26],501,39.8,<5,> 10000,190,<5,–
Cn1cc(-c2cnc3ccc(N(Cc4ncc[nH]4)c4cc(F)cc(F)c4)nc3n2)cn1 [Compound 27],501,3.89,<5,> 10000,–,6.09,–
COc1cc(OC)c(F)c(N(Cc2cn(S(=O)(=O)N(C)C)cn2)c2ccc3ncc(-c4cnn(C)c4)nc3n2)c1 [Compound 36],27.5,1.7,<5,> 10000,–,7.30,–
COc1cc(/N=c2\ccc3ncc(-c4cnn(C)c4)nc3n2CCNC(C)C)c(F)c(OC)c1 [Compound 37],45.7,8.71,<5,> 10000,–,6.78,–
CNCCn1/c(=N/c2cc(OC)cc(OC)c2F)ccc2ncc(-c3cnn(C)c3)nc21 [Compound 38],74.1,4.9,<5,> 10000,–,5.74,–
CNCCN(c1ccc2ncc(-c3cnn(C)c3)nc2n1)c1cc(OC)cc(OC)c1F [Compound 39],46.8,3.98,<5,–,–,6.73,> 10000
